Data reported in USRE45612E1, “Corrosion inhibitor composition applicable for aluminum and steel protection and procedure” (MD FIFTH WARD PROPERTIES, INC., priority 2001, dated 2015).

How the values were obtained:
[1] = Salt spray exposure (ASTM B-117) of scribed coil primers, service life of coating; settings: on galvanized steel, relative to Sr-doped amorphous silica
Experimental: Steel Co.), at 0.6-0.7 mil dry film thickness, aged for at least 2 (two) days at room temperature, scribed and subsequently subjected to salt spray exposure (according to ASTM B-117). The scribes were applied in the typical cross form, and, in order to cut through the protective galvanic zinc coating from the area of the scribes, at appropriate depth. During salt spray exposure, the coatings' physical state was assessed periodically by visual examination. […] Service life of a coating is considered directly proportional to the related pigments' or additives' corrosion inhibitor performance, which is conveniently qualified by Ei, the Inhibitor Efficiency Index, defined as: […]

[2] = Salt spray exposure (ASTM B-117) of scribed aircraft primers containing the inhibitor pigment; settings: 2000 hours salt spray, scribe area
Experimental: The test was performed in a typical two component aircraft primer formulation, specifically recommended for aluminum protection. […] By visual examination of their physical state at the end of the test period, the coatings' corrosion inhibitor performance, considered directly proportional to the tested pigment components' corrosion inhibitive activity, was qualified. The scribed area was especially examined and the absence or presence of corrosion products, respectively, was interpreted as display of, or absence of, the respective corrosion inhibitor pigment's “throw power”. It will be apparent that the “throw power” is the discriminative characteristic of effective corrosion inhibitor pigments.

[3] = Solubility in water of the pigment; assay type: physicochemical
[4] = pH of saturated extract / leachate of the pigment; assay type: physicochemical

With C1CCC(NC2CCCCC2)CC1.S=c1[nH]c(=S)[nH]c(=S)[nH]1 [Example 7, Di-cyclohexyl mono-ammonium salt of trithiocyanuric acid] as the compound, how does the “extension of service life of coil coatings over Sr-doped amorphous silica” value [1] read?
Its value is 200%.

For Sc1nnc(S)s1 [DMTD, 2,5-dimercapto-1,3,4 thiadiazole], which “"Throw Power" Observed” value [2] is on record?
Its value is “displayed throw power”.

With [S-]c1nnc(S)s1.[S-]c1nnc(S)s1.[Zn+2] [Example 1, Zn(DMTD)2] as the compound, how does the “solubility in water, at 24° C.” value [3] read?
The value was 400 µg/mL.

What about the “pH (saturated extract)” value [4] of the same compound?
Its value is 4.5-5.0.
